Reference: patent US11225642B2, “Method for producing renal progenitor cells” (KYOTO UNIVERSITY, priority 2013, dated 2022)

What was measured:
[1] = tested on: OSR1-GFP & SIX2-tdTomato reporter human iPS cell line (4A6C3-10); test: SIX2-positive cell induction method 4, OSR1+SIX2+ cell rate by flow cytometer; format: cell-based
Protocol: 4A6C3-10 was cultured at 37° C. in a 2% to 5% CO2 atmosphere to become 70% to 80% confluent on 10-cm dishes containing a primate ES medium (ReproCELL) supplemented with 500 U/ml penicillin/streptomycin (Invitrogen) and 5 ng/ml recombinant human basic fibroblast growth factor (bFGF, Wako) with the use of ICR-mouse-embryo (fetus 12.5 days old)-derived mouse embryonic fibroblasts (MEF) or SNL feeder cells (McMahon, A. P. and Bradley, A. (1990) Cell 62; 1073-1085) (these cells being previously treated with 15.5 μg/ml mitomycin (Kyowa Hakko Kirin Co., Ltd.) for 2 to 3 hours and seeded at a density of 2×10^5 cells/6-cm dish) as feeder cells. The 10-cm plates containing the cells were rinsed with PBS and treated with a CTK solution (PBS containing 0.25% Trypsin (Invitrogen), 0.1% Collagenase IV (Invitrogen), 20% KnockOut SR (KSR, Invitrogen), and 1 mM CaCl2) at 37° C. for 4 minutes. The CTK solution was removed by rinsing with PBS. Then, the medium was exchanged with DMEM/F12+Glutamax (Invitrogen) containing 0.1 mM MEM NEAA (Invitrogen), 1000 U/ml penicillin/streptomycin, 0.55 mM 2-mercaptoethanol (Invitrogen), and 20% KSR. Subsequently, the cells were scraped using a cell scraper and seeded on 6-cm plates coated with 0.2% gelatin to remove feeder cells. One hour later, the cells were washed with DMEM/F12+Glutamax [stage-1 medium] containing 500 U/ml penicillin/streptomycin and 2% FBS (HyClone), transferred to ultra-low attachment dishes (Corning 3471) having a stage-1 medium containing 100 ng/ml recombinant human/mouse/rat Activin A (R&D Systems) and 1 μM CHIR99021, and cultured at 37° C. in a 5% CO2 atmosphere for 2 days.
In order to differentiate into the intermediate mesoderm, the cell mass (embryoid body (EB)) obtained at stage 1 was transferred to a 24-well plate coated with Synthemax II (Corning), the medium was exchanged with DMEM/F12+Glutamax containing 0.1 mM MEM NEAA, 500 U/ml penicillin/streptomycin, 0.55 mM 2-mercaptoethanol, 10% KSR, 100 ng/ml BMP7 (recombinant human BMP7, R&D Systems), and 1 μM CHIR99021, and the cells were cultured at 37° C. in a 5% CO2 atmosphere for 3 days.
After stage 2, the medium was exchanged with DMEM/F12+Glutamax containing 0.1 mM MEM NEAA, 500 U/ml penicillin/streptomycin, 0.55 mM 2-mercaptoethanol, 10% KSR, 1 μM TTNPB (Sigma T3757), and 5 ng/ml TGFβ1 (Peprotech), followed by culturing at 37° C. in a 5% CO2 atmosphere for 5 days. The medium was exchanged with a medium having the same conditions two days after the start of culture (i.e., day 8 from the start of stage 1 (day 1)).
After stage 3, the medium was exchanged with DMEM/F12+Glutamax containing 0.1 mM MEM NEAA, 500 U/ml penicillin/streptomycin, 0.55 mM 2-mercaptoethanol, 10% KSR, 5 ng/ml TGFβ1, and 0.5 μM DMH1 (Tocris), followed by culturing at 37° C. in a 5% CO2 atmosphere for 17 days (i.e., culturing for 28 days in total from the start of stage 1 (day 1); FIG. 3A). In this case, the medium was exchanged every 3 days with a medium having the same conditions. […] In addition, the OSR1^+SIX2^+ cell rate reached the maximum level on day 25 of culture and then it was confirmed to be maintained until day 28 of culture (FIG. 3D).
Induction of OSR1^+SIX2^+ cells from the 4A6C3-10 iPS cell line was examined using different combinations of TGFβ signaling activators and BMP inhibitors. Specifically, induction of OSR1^+SIX2^+ cells from 4A6C3-10 was examined under conditions 1) to 10) described below. […]

[2] = tested on: OSR1-GFP & SIX2-tdTomato reporter human iPS cell line; test: SIX2-positive cell induction method 1, SIX2-tdTomato-positive cell rate by flow cytometer; format: cell-based; conditions: for SIX2-positive cell rate: induction method 1 stage 3, Dorsomorphin replaced with 0.5 μM LDN193189 and TGFβ1 with 10 ng/ml TGFβ2 or TGFβ3
Protocol: The OSR1-GFP & SIX2-tdTomato reporter human iPS cell line obtained by the method in Example 1 was cultured at 37° C. in a 2-5% CO2 atmosphere to become confluent on 10-cm dishes containing a primate ES/iPS cell medium (ReproCELL) supplemented with 5 ng/ml bFGF (Wako) with the use of SNL cells (McMahon, A. P. and Bradley, A. (1990) Cell 62; 1073-1085) (the cells being treated with 15.5 μg/ml mitomycin (Kyowa Hakko Kirin Co., Ltd.) for 2 to 3 hours and seeded at a density of 3×10^5 cells/10-cm dish) as feeder cells. A CTK solution (2.5% Trypsin (Invitrogen), 1 mg/ml Collagenase IV (Invitrogen), 0.1 M CaCl2, 10 mL KnockOut SR (Invitrogen), and 29.5 mL H2O) was added to dissociate the cells. After removal of the feeder cells, the dissociated cells were suspended in a DMEM/F12 medium containing 1 μM CHIR99021 (Stemgent, 04-0004), 100 ng/ml Activin A (R&D Systems, 338-AC), 1% GlutaMAX (100×) (Invitrogen, 35050-061), 2% FBS (Hyclone), and 0.5% PenStrep (Invitrogen, 10565). Then, the cell suspensions were transferred to a low cell binding plate (LOW CELL BIND 6 WELL DISH (Nunc, 145383)) such that each well contained one-third to one-sixth of the cell suspension obtained from the 10-cm dish, followed by suspension culture at 37° C. in a 5% CO2 atmosphere for 2 days.
The cell mass obtained at stage 1 was transferred to a 24-well or 6-well dish coated with Matrigel (BD Matrigel Matrix Growth Factor Reduced (BD Biosciences, 356230) (the dish being coated with 0.2 mg/ml Matrigel in DMEM and treated at 37° C. for 30 minutes or at 4° C. overnight) or a 24-well or 6-well dish coated with Synthemax (Corning Synthemax II-SC Substrate (Corning, 3535XX1)) (the dish being coated with Synthemax diluted 40-fold with sterile water and treated at room temperature for 2 hours). The medium was exchanged with a DMEM/F12 medium containing 1 μM CHIR99021, 100 ng/ml BMP7 (Recombinant human BMP7 (R&D Systems, 3534-BP)), 0.1% 2-mercaptoethanol (1000×) (Invitrogen, 21985), 1% GlutaMAX (100×), 10% KnockOut SR (Invitrogen), 0.1 mM MEM NEAA (Invitrogen, 11140), and 0.5% PenStrep, followed by adhesion culture at 37° C. in a 5% CO2 atmosphere for 3 to 6 days. In the case of culture for 3 days or more, the medium was exchanged every 3 days with a medium having the same conditions.
The medium was removed from the cells obtained at stage 2. The cells were washed with PBS and then the medium was exchanged with a DMEM/F12 medium containing 5 ng/ml TGFβ1 (Peprotech, 100-21C), 0.5 μM Dorsomorphin (AMPK Inhibitor, Compound C (Merck, 171260)), 0.1% 2-mercaptoethanol (1000×), 1% GlutaMAX (100×), 10% KnockOut SR, 0.1 mM MEM NEAA, and 0.5% PenStrep, followed by suspension culture at 37° C. in a 5% CO2 atmosphere for 15 to 22 days. In this case, the medium was exchanged every 3 days with a medium having the same conditions.
At stage 3 of SIX2-positive cell induction method 1, Dorsomorphin was replaced with 100 ng/ml Noggin (Peprotech), 0.5 μM LDN193189 (Axon MedChem, 1509), or 0.5 μM DMH1 (Tocris, 4126) for differentiation induction in the aforementioned manner.
At stage 3 of SIX2-positive cell induction method 1, TGFβ1 was exchanged with 50 μM IDE1 (Tocris) or 50 μM IDE2 (Tocris) for differentiation induction in the aforementioned manner.
At stage 3 of SIX2-positive cell induction method 1, Dorsomorphin was replaced with 0.5 μM LDN193189, while TGFβ1 with 10 ng/ml TGFβ2 (Peprotech) or 10 ng/ml TGFβ3 (R&D), for differentiation induction in the aforementioned manner. As a result, the SIX2-positive cell rates were 8.6% and 9.3%, respectively (FIGS. 2G and 2H).

[3] = induction method 1 stage 3, Dorsomorphin replaced with 100 ng/ml Noggin, 0.5 μM LDN193189 or 0.5 μM DMH1, with TGFβ1
[4] = induction method 1 stage 3, TGFβ1 exchanged with 50 μM IDE1 or 50 μM IDE2, with Dorsomorphin

Molecule: CC(C)Oc1ccc(-c2cnc3c(-c4ccnc5ccccc45)cnn3c2)cc1 [DMH1, 4-[6-[4-(1-Methylethoxy)phenyl]pyrazolo[1,5-a]pyrimidin-3-yl]-quinoline]
- induction of OSR1+SIX2+ cells ([1]; Example 8, comparison of combinations of TGFβ signaling activators and BMP inhibitors at stage 4 (FIG. 4)): effective
- OSR1-positive and SIX2-positive (OSR1+SIX2+) cell rate ([1]; induction method 4, stage 4 medium with 5 ng/ml TGFβ1 and 0.5 μM DMH1, day 28 of culture): 32.8%
- SIX2-tdTomato-positive cell rate [2, 3]: 15.4%

Molecule: O=C(O)CCCCCC(=O)N/N=C\c1ccccc1C(=O)O [IDE1, (Z)-2-((2-(6-carboxyhexanoyl)hydrazono)methyl)benzoic acid]
- SIX2-tdTomato-positive cell rate [2, 4]: 8.4%

Molecule: O=C(O)CCCCCC(=O)NN=C1CCCC1 [IDE2, 7-(2-cyclopentylidenehydrazinyl)-7-oxoheptanoic acid]
- SIX2-tdTomato-positive cell rate [2, 4]: 39.4%

Molecule: c1ccc2c(-c3cnn4cc(-c5ccc(N6CCNCC6)cc5)cnc34)ccnc2c1 [LDN193189, 4-(6-(4-(piperazin-1-yl)phenyl)pyrazolo[1,5-a]pyrimidin-3-yl)quinoline]
- SIX2-tdTomato-positive cell rate [2, 3]: 20.4%

Molecule: NC(=O)c1ccc(-c2nc(-c3ccc4c(c3)OCO4)c(-c3ccccn3)[nH]2)cc1 [SB431542]
- differentiation into OSR1+SIX2+ cells ([1]; stage 4 medium with 10 μM SB431542 together with 5 ng/ml TGFβ1 and 0.5 μM DMH1 (condition 11)): inhibited

B1: TGFβ2: TGFβ signaling activator protein (Peprotech) (protein, UniProt P61812 303-414, looked up)
Transforming growth factor …: ALDAAYCFRNVQDNCCLRPLYIDFKRDLGWKWIHEPKGYNANFCAGACPYLWSSDTQHSRVLSLYNTINPEASASPCCVSQDLEPLTILYYIGKTPKIEQLSNMIVKSCKCS
- SIX2-positive cell rate [2]: 8.6%

B2: TGFβ3: TGFβ signaling activator protein (R&D, Peprotech) (protein, UniProt P10600 301-412, looked up)
Transforming growth factor …: ALDTNYCFRNLEENCCVRPLYIDFRQDLGWKWVHEPKGYYANFCSGPCPYLRSADTTHSTVLGLYNTLNPEASASPCCVPQDLEPLTILYYVGRTPKVEQLSNMVVKSCKCS
- SIX2-positive cell rate [2]: 9.3%

B3: Noggin: BMP inhibitor protein (Peprotech) (protein, UniProt Q13253 28-232, looked up)
Noggin: QHYLHIRPAPSDNLPLVDLIEHPDPIFDPKEKDLNETLLRSLLGGHYDPGFMATSPPEDRPGGGGGAAGGAEDLAELDQLLRQRPSGAMPSEIKGLEFSEGLAQGKKQRLSKKLRRKLQMWLWSQTFCPVLYAWNDLGSRFWPRYVKVGSCFSKRSCSVPEGMVCKPSKSVHLTVLRWRCQRRGGQRCGWIPIQYPIISECKCSC
- SIX2-tdTomato-positive cell rate [2, 3]: 7.5%
